Data reported in patent publication US7687465B2, “Therapeutic cancer vaccine” (Kraeftens Bekaempelse, priority 2003, dated 2010).
pEC50: −log10 of the molar value.

What was measured:
[1] = test system: primary melanoma sections; assay: In situ detection of ML-IAP-reactive CTL with multimerized HLA-A2/peptide complexes; parameters: species or system human; settings: sections of primary melanoma from six patients
Text: In situ detection of ML-IAP-reactive CTL. Confocal laser scanning microscopy was used to detect CTL reacting with a Cy3-conjugated anti-CD8 antibody (red channel) and a fluorescein isothiocyanate-conjugated multimeric HLA-A2/ML-IAP280 construct (green channel) (first and second columns) or with a fluorescein isothiocyanate conjugated multimeric HLA-A2/ML-IAP245 construct (last column) in primary tumors from two HLA-A2-positive melanoma patients.
HLA-A2 and ML-IAP245/HLA-A2-specific monomers were multimerized using dextran molecules, which were conjugated with both streptavidin and fluorescein isothiocyanate. Multimerized MHC complexes were used to stain acetone-fixed, frozen material as described previously^11,48 and antigen-specific cells were visualized using a confocal laser microscope. Sections of primary melanoma from six patients were analyzed, and ML-IAP280- and ML-IAP245-reactive CTL could readily be detected in situ in the tumor microenvironment in two of the patients (FIG. 4).

HLA-A2 = target: T1, HLA-A2 (Homo sapiens, UniProt P04439, D140Y/D185E/D98H/E176V/E277Q/G131W/G231S/I119V/I121R/I166T/I218V/L300P/L318F/N151K/N90K/P208A/P217A/Q86G/Q94H/R138H/R169H/T345S); assay: Assembly assay for peptide binding to class I MHC molecules; settings: concentration of the peptide required for half maximal binding to HLA-A2; read-out: C50
T1 construct: stabilization of the class 1 molecule after loading of peptide to the peptide transporter deficient cell line T2; endogenous in cells; host or cells: T2 (TAP-deficient human cell line), metabolically labelled with [35S]-methionine and lysed
Protocol: Assembly assays for binding of the synthetic peptides to class I MHC molecules metabolically labeled with [^35S]-methionine can be carried out as described below. It will be appreciated by the person skilled in the art that the protocol may be adopted for any peptide and any class I MHC molecule.
Briefly, TAP deficient cells were metabolically labeled with [^35S]-methionine (Amersham, Freiburg, Germany). The cells were lyzed in 0.5 ml lysis buffer (150 mM NaCl, 50 mM TrisHCl, 0.5% NP-40 (Fluka, Buchs, Switzerland), 5 mM EDTA, pH 7.5) with 0.5% Mega-9 (Sigma, St. Louis, USA) in the presence of protease inhibitors (2 mM PMSF, 5 mM iodoacetamide, 2 μg/ml pepstatin, 2 μg/ml leupeptin) with or without synthetic peptide (for a list of positive control peptides, see Table 2).
After 20 min of incubation, the cell nuclei were removed by centrifugation (5 min, 10,000 g) and 50 μl (10% v/v) freshly washed Staphylococcus aureus organisms (Pansorbin, Calbiochem, Nottingham, UK). The next day Pansorbin was removed by centrifugation (12 min, 16,000 g) and the appropriate monoclonal antibody was added at a final concentration of 10 μg/ml, incubated for 90 min, followed by addition of protein A-Sepharose (75 μl, 10% v/v) and incubation for 1 h. The beads were washed 4 times and stored at −20° C. until analysis by electrophoresis.
In the case of an assembly assay with the HLA class I-specific conformation-dependent monoclonal antibody W6/32, samples were eluted in reducing buffer (9.5 M urea, 2% NP-40, 5% 2-mercaptoethanol, 2% Ampholines, pH range 3.5-9.5 (Pharmacia Biotech, Uppsala, Sweden)) and focused for 16 h at 880 V on 5.5% polyacrylamide isoelectric focusing (IEF) gels^20,39.
Samples from assembly assays with allele-specific antibodies were eluted by boiling (5 min) in SDS reducing buffer (50 mM TrisHCl pH 6.8, 2% SDS, 5% 2-mercaptoethanol, 10% glycerol, 2.5% bromophenol blue) and electrophorezed on 12% SDS-PAGE gels (1 h at 200 V). All gels were fixed in 10% acetic acid with 5% methanol and dried onto 3 MM paper (Whatman, Maidstone, UK). MHC heavy chain bands were quantified using the Imagequant Phosphorimager program (Molecular Dynamics, Sunnyvale, Calif., USA). The intensity of the band is directly related to the amount of peptide-bound class I MHC complex recovered during the assay. C50 value (μM) as the concentration of the peptide required for half maximal binding to MHC may thus be determined. The binding affinities of the analysed peptides are determined according to their efficiency of stabilising the HLA class I molecules. The binding affinity is represented as the peptide concentration required to reach half-maximal stabilistation of appropriate HLA-molecule.
Assembly assays for binding of the synthetic peptides to class I MHC molecules metabolically labeled with [^35S]-methionine were carried out as described^15,16. The assembly assay is based on stabilization of the class 1 molecule after loading of peptide to the peptide transporter deficient cell line T2. Subsequently correctly folded stable MHC heavy chains are immunoprecipitated using conformation-dependent antibodies. After IEF electrophoresis, gels were exposed to phosphorImager screens, and peptide binding was quantitated using the Imagequant PhosphorImager program (Molecular Dynamics, Sunnyvale, Calif.).

pEC50 (HLA-A2): 6.00
Compound: CC(C)C[C@H](NC(=O)[C@@H](N)CCCNC(=N)N)C(=O)N[C@@H](CCC(N)=O)C(=O)N[C@@H](CCC(=O)O)C(=O)N[C@@H](CCC(=O)O)C(=O)N[C@@H](CCCNC(=N)N)C(=O)N[C@H](C(=O)N[C@@H](CS)C(=O)N[C@@H](CCCCN)C(=O)N[C@H](C(=O)O)C(C)C)[C@@H](C)O [ML-IAP245]
patients with peptide-reactive CTL detected in situ in the tumor microenvironment [1]: two
